Assay results taken from patent US20080249113A1, “Fungicidal Mixtures” (priority 2004, published 2008).

Experiments:
Format in all cases: in vivo
[1] = tested on: Alternaria solani; experiment: Use Example 5: early blight of tomato caused by Alternaria solani, synergism test (Abbot efficacy, Colby); details: individual active compound; for pest or weed control at 4 ppm: 4 ppm in the spray liquor
Description: (§1) For use examples 3 to 9, the active compounds, separately or jointly, were prepared as a stock solution comprising 0.25% by weight of active compound in acetone or DMSO. 1% by weight of the emulsifier Uniperol® EL (wetter having emulsifying and dispersant action based on ethoxylated alkylphenols) was added to this solution, and the mixture was diluted with water to the desired concentration.
(§2) The active compounds fosetyl-AI, epoxiconazole, triticonazole and pyraclostrobin were applied in their commercial formulation.
Leaves of potted plants of the cultivar “Goldene Königin” were sprayed to run off point with an aqueous suspension having the active compound concentration stated below. The next day, the leaves were infected with an aqueous spore suspension of Alternaria solani in a 2% strength biomalt solution having a density of 0.17×10^6 spores/ml. The plants were then placed in a water vapor-saturated chamber at temperatures between 20 and 22° C. After 5 days, the disease on the untreated but infected control plants had developed to such an extent that the infection could be determined visually in %.
A further test according to use example 3 was evaluated as follows:
(§3) The visually determined percentages of infected leaf areas were converted into efficacies in % of the untreated control:
(§4) The efficacy (E) is calculated as follows using Abbot's formula: […]
(§5) α corresponds to the fungicidal infection of the treated plants in % and β corresponds to the fungicidal infection of the untreated (control) plants in %
(§6) […]; The expected efficacies of mixtures of active compounds were determined using Colby's formula (Colby, S.R. “Calculating synergistic and antagonistic responses of herbicide combinations”, Weeds, 15, 20-22, 1967) and compared with the observed efficacies.
(§7) E=x+y−x·y/100 • E expected efficacy, expressed in % of the untreated control, when using the mixture of the active compounds A and B at the concentrations a and b • x efficacy, expressed in % of the untreated control, when using the active compound A at the concentration a • y efficacy, expressed in % of the untreated control, when using the active compound B at the concentration b

[2] = tested on: Puccinia recondita; experiment: Use Example 6: protective activity against Puccinia recondita on wheat (brown rust of wheat); details: individual active compound
Description: as §1, §2, §3, §4, §5, §6, §7
Leaves of potted wheat seedlings of the cultivar “Kanzler” were sprayed to run off point with an aqueous suspension having the active compound concentration stated below. The next day, the treated plants were inoculated with a spore suspension of brown rust of wheat (Puccinia recondite). The plants were then placed in a chamber with high atmospheric humidity (90 to 95%) at 20 to 22° C. for 24 hours. During this time, the spores germinated and the germ tubes penetrated into the leaf tissue. The next day, the test plants were returned to the greenhouse and cultivated at temperatures between 20 and 22° C. and 65 to 70% relative atmospheric humidity for a further 7 days. The extent of the rust fungus development on the leaves was then determined visually.

[3] = tested on: Pyrenophora teres; experiment: Use Example 7: net blotch of barley caused by Pyrenophora teres, 1 day protective application, synergism test; details: individual active compound
Description: as §1
Leaves of potted barley seedlings were sprayed to run off with an aqueous suspension having the active compound concentration stated below. 24 hours after the spray coating had dried on, the test plants were inoculated with an aqueous spore suspension of Pyrenophora [syn. Drechslera ] teres, the net blotch pathogen. The test plants were then placed in a greenhouse at temperatures between 20 and 24° C. and 95 to 100% relative atmospheric humidity. After 6 days, the extent of the development of the disease was determined visually in % infection of the entire leaf area.
as §3, §4, §5, §6, §7
In a further test according to use example 4, the following results were obtained: […]

[4] = Alternaria solani, 120 h, read-out: Efficacy in % of the untreated control
[5] = Alternaria solani, 120 h, 16 ppm in the spray liquor, read-out: Efficacy in % of the untreated control
[6] = Alternaria solani, 120 h, 63 ppm in the spray liquor, read-out: Efficacy in % of the untreated control

In the case of Fc1ccc([C@]2(Cn3cncn3)O[C@H]2c2ccccc2Cl)cc1 (racemic) [epoxiconazole, (2RS, 3SR)-1-[3-(2-chlorophenyl)-2,3-epoxy-2-(4-fluorophenyl)propyl]-1H-1,2,4-triazole], the pest or weed control at 4 ppm [1, 4] is reported as 56%.
With COCC(=O)N(c1c(C)cccc1C)C(C)C(=O)OC (racemic) [metalaxyl, methyl N-(methoxyacetyl)-N-(2,6-xylyl)-DL-alaninate] the pest or weed control at 4 ppm [1, 4] was 0%.
For Cc1ccccc1-c1c(Cl)nc2ncnn2c1N1CCC(C)CC1 [Compound A-31, 5-chloro-6-(2-methylphenyl)-7-(4-methylpiperidin-1-yl)-1,2,4-triazolo[1,5a]pyrimidine], the “Efficacy in % of the untreated control” value ([1]; 63 ppm in the spray liquor) was 78%, the “Efficacy in % of the untreated control” value ([2]; 16 ppm in the spray liquor) was 22% and the “Efficacy in % of the untreated control” value ([3]; 16 ppm in the spray liquor) was 33%. For the same compound, the “Efficacy in % of the untreated control” value ([3]; 63 ppm in the spray liquor) was 67%.
Work on O=C(Nc1ccccc1-c1ccc(Cl)cc1)c1cccnc1Cl [boscalid, 2-chloro-N-(4′-chlorobiphenyl-2-yl)nicotinamide] yielded a pest or weed control at 16 ppm [1, 5] of 22%.
N#Cc1c(Cl)c(Cl)c(Cl)c(C#N)c1Cl [chlorothalonil, 2,4,5,6-tetrachloroisophthalonitrile] was tested, and the pest or weed control at 63 ppm [1, 6] was 0% and the “Efficacy in % of the untreated control” value ([2]; 16 ppm in the spray liquor) was 17%.
For Cc1ccc(-c2c(Cl)nc(C#N)n2S(=O)(=O)N(C)C)cc1 [cyazofamid, 4-chloro-2-cyano-N,N-dimethyl-5-p-tolylimidazole-1-sulfonamide], the pest or weed control at 16 ppm [1, 5] was 0%, the pest or weed control at 63 ppm [1, 6] was 0% and the pest or weed control at 250 ppm ([1]; Alternaria solani, 120 h, 250 ppm in the spray liquor, read-out: Efficacy in % of the untreated control) was 0%.
COc1ccc(C(=CC(=O)N2CCOCC2)c2ccc(Cl)cc2)cc1OC [dimethomorph, 3-(4-chlorophenyl)-3-(3,4-dimethoxyphenyl)-1-morpholin-4-ylpropenone] was tested, and the “Efficacy in % of the untreated control” value ([2]; 16 ppm in the spray liquor) was 0% and the “Efficacy in % of the untreated control” value ([2]; 63 ppm in the spray liquor) was 0%.
N#Cc1sc2c(=O)c3ccccc3c(=O)c=2sc1C#N [dithianon, 5,10-dioxo-5,10-dihydronaphtho[2,3-b][1,4]dithiine-2,3-dicarbonitrile] was tested, and the “Efficacy in % of the untreated control” value ([3]; 16 ppm in the spray liquor) was 0%.
With CC(Cc1ccc(C(C)(C)C)cc1)CN1CC(C)OC(C)C1 (centres unmarked) [fenpropimorph, 4-[3-(4-tert-butylphenyl)-2-methylpropyl]-2,6-dimethylmorpholine] the “Efficacy in % of the untreated control” value ([2]; 16 ppm in the spray liquor) was 0% and the “Efficacy in % of the untreated control” value ([2]; 63 ppm in the spray liquor) was 0%.
O=C1c2ccccc2C(=O)N1SC(Cl)(Cl)Cl [folpet, 2-trichloromethylsulfanylisoindole-1,3-dione] showed a pest or weed control at 63 ppm [1, 6] of 0%.
With CO/N=C(/C(=O)OC)c1ccccc1COc1ccccc1C [kresoxim-methyl, methyl (E)-methoxyimino[α-(otolyloxy)-otolyl]acetate] the “Efficacy in % of the untreated control” value ([2]; 1 ppm in the spray liquor) was 0% and the “Efficacy in % of the untreated control” value ([2]; 4 ppm in the spray liquor) was 0%.
With CCCN(CCOc1c(Cl)cc(Cl)cc1Cl)C(=O)n1ccnc1 [prochloraz, N-propyl-N-[2-(2,4,6-trichlorophenoxy)ethyl]imidazole-1-carboxamide] the “Efficacy in % of the untreated control” value ([2]; 4 ppm in the spray liquor) was 0% and the “Efficacy in % of the untreated control” value ([2]; 16 ppm in the spray liquor) was 0%.
For OC(Cc1ccccc1Cl)(Cn1nc[nH]c1=S)C1(Cl)CC1 (centres unmarked) [prothioconazole, 2-[2-(1-chlorocyclopropyl)-3-(2-chlorophenyl)-2-hydroxypropyl]-2,4-dihydro-[1,2,4]triazole-3-thione], the pest or weed control at 4 ppm [1, 4] was 22%.
In the case of Cc1cc(C)nc(Nc2ccccc2)n1 [pyrimethanil, 4,6-dimethylpyrimidin-2-ylphenylamine], the “Efficacy in % of the untreated control” value ([2]; 16 ppm in the spray liquor) is reported as 0%.
CC1(C)CCC(=Cc2ccc(Cl)cc2)C1(O)Cn1cncn1 (centres unmarked) [triticonazole, 5-(4-chlorobenzylidene)-2,2-dimethyl-1-[1,2,4]triazol-1-ylmethylcyclo-pentanol] showed a pest or weed control at 4 ppm [1, 4] of 0%.
“manganese ethylenebis(dithiocarbamate) zinc complex [mancozeb]” was tested, and the “Efficacy in % of the untreated control” value ([1]; 16 ppm in the spray liquor) was 0%, the “Efficacy in % of the untreated control” value ([1]; 63 ppm in the spray liquor) was 0% and the “Efficacy in % of the untreated control” value ([2]; 16 ppm in the spray liquor) was 0%. The “Efficacy in % of the untreated control” value ([2]; 63 ppm in the spray liquor) was 0%.
